Measurements taken from ChEMBL document CHEMBL2163283, “Design and synthesis of novel stiripentol analogues as potential anticonvulsants” (Eur J Med Chem, 2012).
Active and inactive are the calls of the source. No cut-off for these calls is given here.

How the values were obtained:
Mus musculus [1] = assay: Anticonvulsant activity in Swiss albino mouse assessed as maximal electroshock-induced seizures at 346 umol/kg, ip administered 30 mins before electroshock challenge; assay type: functional
Mus musculus [2] = assay: Anticonvulsant activity in Swiss albino mouse assessed as protection against subcutaneous pentylenetetrazol-induced seizures at 346 umol/kg, ip administered 30 mins before pentylenetetrazole challenge measured after 30 mins; assay type: functional
Mus musculus [3] = assay: Anticonvulsant activity in Swiss albino mouse assessed as protection against subcutaneous pentylenetetrazol-induced seizures at 346 umol/kg, ip administered 30 mins before pentylenetetrazole challenge measured after 30 mins relative to stiripentol; assay type: functional
Mus musculus [4] = assay: Anticonvulsant activity in Swiss albino mouse assessed as protection against subcutaneous pentylenetetrazol-induced seizures at 390 umol/kg, ip administered 30 mins before pentylenetetrazole challenge measured after 30 mins; assay type: functional
Mus musculus [5] = assay: Anticonvulsant activity in Swiss albino mouse assessed as maximal electroshock-induced seizures at 390 umol/kg, ip administered 30 mins before electroshock challenge; assay type: functional, organism-based
Mus musculus [6] = assay: Anticonvulsant activity in Swiss albino mouse assessed as protection against subcutaneous pentylenetetrazol-induced seizures at 390 umol/kg, ip administered 30 mins before pentylenetetrazole challenge measured after 30 mins relative to stiripentol; assay type: functional
Mus musculus [7] = assay: Anticonvulsant activity in Swiss albino mouse assessed as protection against subcutaneous pentylenetetrazol-induced seizures at 330 umol/kg, ip administered 30 mins before pentylenetetrazole challenge measured after 30 mins relative to stiripentol; assay type: functional
Mus musculus [8] = assay: Anticonvulsant activity in Swiss albino mouse assessed as maximal electroshock-induced seizures at 330 umol/kg, ip administered 30 mins before electroshock challenge; assay type: functional
Mus musculus [9] = assay: Anticonvulsant activity in Swiss albino mouse assessed as protection against subcutaneous pentylenetetrazol-induced seizures at 330 umol/kg, ip administered 30 mins before pentylenetetrazole challenge measured after 30 mins; assay type: functional
Mus musculus [10] = assay: Anticonvulsant activity in Swiss albino mouse assessed as protection against subcutaneous pentylenetetrazol-induced seizures at 410 umol/kg, ip administered 30 mins before pentylenetetrazole challenge measured after 30 mins relative to stiripentol; assay type: functional
Mus musculus [11] = assay: Anticonvulsant activity in Swiss albino mouse assessed as protection against subcutaneous pentylenetetrazol-induced seizures at 410 umol/kg, ip administered 30 mins before pentylenetetrazole challenge measured after 30 mins; assay type: functional
Mus musculus [12] = assay: Anticonvulsant activity in Swiss albino mouse assessed as maximal electroshock-induced seizures at 410 umol/kg, ip administered 30 mins before electroshock challenge; assay type: functional
Mus musculus [13] = assay: Anticonvulsant activity in Swiss albino mouse assessed as maximal electroshock-induced seizures at 370 umol/kg, ip administered 30 mins before electroshock challenge; assay type: functional, organism-based
Mus musculus [14] = assay: Anticonvulsant activity in Swiss albino mouse assessed as protection against subcutaneous pentylenetetrazol-induced seizures at 370 umol/kg, ip administered 30 mins before pentylenetetrazole challenge measured after 30 mins relative to stiripentol; assay type: functional
Mus musculus [15] = assay: Anticonvulsant activity in Swiss albino mouse assessed as protection against subcutaneous pentylenetetrazol-induced seizures at 370 umol/kg, ip administered 30 mins before pentylenetetrazole challenge measured after 30 mins; assay type: functional
Mus musculus [16] = assay: Anticonvulsant activity in Swiss albino mouse assessed as maximal electroshock-induced seizures at 340 umol/kg, ip administered 30 mins before electroshock challenge; assay type: functional
Mus musculus [17] = assay: Anticonvulsant activity in Swiss albino mouse assessed as protection against subcutaneous pentylenetetrazol-induced seizures at 340 umol/kg, ip administered 30 mins before pentylenetetrazole challenge measured after 30 mins; assay type: functional
Mus musculus [18] = assay: Anticonvulsant activity in Swiss albino mouse assessed as protection against subcutaneous pentylenetetrazol-induced seizures at 340 umol/kg, ip administered 30 mins before pentylenetetrazole challenge measured after 30 mins relative to stiripentol; assay type: functional
Mus musculus [19] = assay: Neurotoxicity in Swiss albino mouse assessed as climbing response to inverted mesh at 346 umol/kg, sc administered measured every 15 mins for 2 hrs by wire mesh grasping test; assay type: toxicity, organism-based; details: in vivo
Mus musculus [20] = assay: Anticonvulsant activity in ip dosed Swiss albino mouse assessed as maximal electroshock-induced seizures administered 30 mins before electroshock challenge; assay type: functional
Mus musculus [21] = assay: Neurotoxicity in Swiss albino mouse assessed as effect on hindlimb grip strength at 346 umol/kg, sc administered measured every 15 mins for 2 hrs; assay type: toxicity, organism-based; details: in vivo
Mus musculus [22] = assay: Anticonvulsant activity in Swiss albino mouse assessed as protection against subcutaneous pentylenetetrazol-induced seizures at 108 umol/kg, ip administered 30 mins before pentylenetetrazole challenge measured after 30 mins; assay type: functional
Mus musculus [23] = assay: Anticonvulsant activity in Swiss albino mouse assessed as maximal electroshock-induced seizures at 357 umol/kg, ip administered 30 mins before electroshock challenge; assay type: functional
Mus musculus [24] = assay: Anticonvulsant activity in Swiss albino mouse assessed as protection against subcutaneous pentylenetetrazol-induced seizures at 357 umol/kg, ip administered 30 mins before pentylenetetrazole challenge measured after 30 mins relative to stiripentol; assay type: functional
Mus musculus [25] = assay: Anticonvulsant activity in Swiss albino mouse assessed as protection against subcutaneous pentylenetetrazol-induced seizures at 357 umol/kg, ip administered 30 mins before pentylenetetrazole challenge measured after 30 mins; assay type: functional

`CC(C)(C)C1=NN(C(N)=O)C(c2ccc3c(c2)OCO3)C1` (racemic) was tested, and the Activity (Mus musculus [1]) was 66%, the Activity (Mus musculus [2]) was 16% and the Activity (Mus musculus [3]) was 1.11%.

With `Cc1ccc(NC(=O)N/N=C(\C=C\c2ccc3c(c2)OCO3)C(C)(C)C)cc1` the Activity (Mus musculus [4]) was 16%, the Activity (Mus musculus [5]) was “inactive” and the Activity (Mus musculus [6]) was 0.98 ratio to stiripentol.

In the case of `CC(C)(C)C1=NN(C(=O)Nc2ccc(Br)cc2)C(c2ccc3c(c2)OCO3)C1` (racemic), the Activity (Mus musculus [7]) is reported as 1.29%, the Activity (Mus musculus [8]) is reported as “inactive” and the Activity (Mus musculus [9]) is reported as 33%.

For `Cc1ccc(C(=O)N2N=C(C(C)(C)C)CC2c2ccc3c(c2)OCO3)cc1` (racemic), the Activity (Mus musculus [10]) was 1.04%, the Activity (Mus musculus [11]) was 33% and the Activity (Mus musculus [12]) was 33%.

`CC(C)(C)C1=NN(C(=O)Nc2ccc(Cl)cc2)C(c2ccc3c(c2)OCO3)C1` (racemic) was tested, and the Activity (Mus musculus [13]) was “inactive”, the Activity (Mus musculus [14]) was 1.15% and the Activity (Mus musculus [15]) was 33%.

In the case of `Cc1ccc(NC(=O)N2N=C(C(C)(C)C)CC2c2ccc3c(c2)OCO3)cc1` (racemic), the Activity (Mus musculus [4]) is reported as 83%, the Activity (Mus musculus [5]) is reported as “inactive” and the Activity (Mus musculus [6]) is reported as 1.48 ratio to stiripentol.

With `CC(C)(C)C1=NN(C(=O)Nc2ccc(Cl)cc2Cl)C(c2ccc3c(c2)OCO3)C1` (racemic) the Activity (Mus musculus [16]) was “inactive”, the Activity (Mus musculus [17]) was 33% and the Activity (Mus musculus [18]) was 1.26%.

Work on `CC(C)(C)C(/C=C/c1ccc2c(c1)OCO2)=N/NC(=O)Nc1ccc(Br)cc1` yielded an Activity (Mus musculus [7]) of 1.6%, an Activity (Mus musculus [8]) of 16% and an Activity (Mus musculus [9]) of 66%.

In the case of `CC(C)(C)C(/C=C/c1ccc2c(c1)OCO2)=N/NC(N)=O`, the Activity (Mus musculus [19]) is reported as “Toxic”, the ED50 (Mus musculus [20]) is reported as 87 mg/kg and the Activity (Mus musculus [1]) is reported as 100%. The Activity (Mus musculus [21]) was “Toxic”, the Activity (Mus musculus [2]) was 50% and the Activity (Mus musculus [3]) was 1.42%.

In the case of `CC(C)(C)C(/C=C/c1ccc2c(c1)OCO2)=N/NC(=O)Nc1ccccc1`, the Activity (Mus musculus [10]) is reported as 1.3%, the Activity (Mus musculus [11]) is reported as 66% and the Activity (Mus musculus [12]) is reported as “inactive”.

In the case of `CCC1(c2ccccc2)C(=O)NC(=O)NC1=O` [PHENOBARBITAL], the Activity (Mus musculus [22]) is reported as 100%.

For `CC(C)(C)C1=NN(C(=O)c2ccc(Cl)cc2Cl)C(c2ccc3c(c2)OCO3)C1` (racemic), the Activity (Mus musculus [23]) was 16%, the Activity (Mus musculus [24]) was 1.19% and the Activity (Mus musculus [25]) was 33%.

In the case of `Cc1ccccc1NC(=O)N1N=C(C(C)(C)C)CC1c1ccc2c(c1)OCO2` (racemic), the Activity (Mus musculus [4]) is reported as 16%, the Activity (Mus musculus [5]) is reported as “inactive” and the Activity (Mus musculus [6]) is reported as 0.95 ratio to stiripentol.
